From PubChem BioAssay (NCI)
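Five compound concentrations were applied to cells in 96-well plates for 48 hours; endpoints were derived by simple linear interpolation of the resulting dose-response curve. Abbreviation: GI50, concentration required for 50% inhibition of growth. TGI: concentration producing complete growth inhibition.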

Experiments:
Experiment in all cases: growth of human tumour cells (NCI), 48 h
ACHN renal = tested on: ACHN renal
HS 578T breast = tested on: HS 578T breast
SN12C renal = tested on: SN12C renal
SK-MEL-28 melanoma = tested on: SK-MEL-28 melanoma
NCI-H226 lung = tested on: NCI-H226 lung
NCI-H522 lung = tested on: NCI-H522 lung
HCT-116 colon = tested on: HCT-116 colon
MDA-MB-231 breast = tested on: MDA-MB-231 breast
U251 CNS = tested on: U251 CNS
SW-620 colon = tested on: SW-620 colon
NCI/ADR-RES ovarian = tested on: NCI/ADR-RES ovarian
RXF 393 renal = tested on: RXF 393 renal
CAKI-1 renal = tested on: CAKI-1 renal
SR leukemia = tested on: SR leukemia
HOP-92 NSCLC = tested on: HOP-92 NSCLC
SNB-75 CNS = tested on: SNB-75 CNS
UO-31 renal = tested on: UO-31 renal
A549 NSCLC = tested on: A549 NSCLC
OVCAR-4 ovarian = tested on: OVCAR-4 ovarian
EKVX NSCLC = tested on: EKVX NSCLC
NCI-H23 lung = tested on: NCI-H23 lung
RPMI-8226 leukemia = tested on: RPMI-8226 leukemia
COLO 205 colon = tested on: COLO 205 colon
MALME-3M melanoma = tested on: MALME-3M melanoma
IGROV1 ovarian = tested on: IGROV1 ovarian
A498 renal = tested on: A498 renal
UACC-62 melanoma = tested on: UACC-62 melanoma
SK-MEL-5 melanoma = tested on: SK-MEL-5 melanoma
SF-268 CNS = tested on: SF-268 CNS
SF-539 CNS = tested on: SF-539 CNS
MOLT-4 leukemia = tested on: MOLT-4 leukemia
MDA-MB-435 = tested on: MDA-MB-435
HT29 colon = tested on: HT29 colon
TK-10 renal = tested on: TK-10 renal
CCRF-CEM leukemia = tested on: CCRF-CEM leukemia
786-0 renal = tested on: 786-0 renal
HOP-62 NSCLC = tested on: HOP-62 NSCLC
HCC-2998 colon = tested on: HCC-2998 colon
BT-549 breast = tested on: BT-549 breast
K-562 leukemia = tested on: K-562 leukemia
SF-295 CNS = tested on: SF-295 CNS
M14 melanoma = tested on: M14 melanoma
LOX IMVI melanoma = tested on: LOX IMVI melanoma
SNB-19 CNS = tested on: SNB-19 CNS
OVCAR-5 ovarian = tested on: OVCAR-5 ovarian
NCI-H460 lung = tested on: NCI-H460 lung
DU-145 prostate = tested on: DU-145 prostate
OVCAR-8 ovarian = tested on: OVCAR-8 ovarian
SK-MEL-2 melanoma = tested on: SK-MEL-2 melanoma
HL-60(TB) leukemia = tested on: HL-60(TB) leukemia
KM12 colon = tested on: KM12 colon
UACC-257 melanoma = tested on: UACC-257 melanoma
HCT-15 colon = tested on: HCT-15 colon
PC-3 prostate = tested on: PC-3 prostate
OVCAR-3 ovarian = tested on: OVCAR-3 ovarian
SK-OV-3 ovarian = tested on: SK-OV-3 ovarian

O=C1Nc2cc(-c3ccc(NS(=O)(=O)c4ccc(F)c(Cl)c4)cc3)ccc2/C1=C/c1ccc[nH]1
GI50 (ACHN renal): 3.52 µM
TGI (ACHN renal): 14.6 µM
GI50 (HS 578T breast): 2.96 µM
TGI (HS 578T breast): 19.2 µM
GI50 (SN12C renal): 11.8 µM
TGI (SN12C renal): 31 µM
GI50 (SK-MEL-28 melanoma): 6.91 µM
TGI (SK-MEL-28 melanoma): 29.2 µM
GI50 (NCI-H226 lung): 3.86 µM
TGI (NCI-H226 lung): 26.1 µM
GI50 (NCI-H522 lung): 4.19 µM
TGI (NCI-H522 lung): 22.4 µM
GI50 (HCT-116 colon): 3.57 µM
TGI (HCT-116 colon): 33.3 µM
GI50 (MDA-MB-231 breast): 4.86 µM
TGI (MDA-MB-231 breast): 21.3 µM
GI50 (U251 CNS): 11.5 µM
TGI (U251 CNS): 26.1 µM
GI50 (SW-620 colon): 3.46 µM
TGI (SW-620 colon): 17 µM
GI50 (NCI/ADR-RES ovarian): 7.98 µM
TGI (NCI/ADR-RES ovarian): 29.9 µM
GI50 (RXF 393 renal): 3.12 µM
TGI (RXF 393 renal): 16.6 µM
GI50 (CAKI-1 renal): 4.63 µM
TGI (CAKI-1 renal): 18.6 µM
GI50 (SR leukemia): 2.2 µM
TGI (SR leukemia): 17.6 µM
GI50 (HOP-92 NSCLC): 4.68 µM
TGI (HOP-92 NSCLC): 20.3 µM
GI50 (SNB-75 CNS): 0.95 µM
TGI (SNB-75 CNS): 14.4 µM
GI50 (UO-31 renal): 3.22 µM
TGI (UO-31 renal): 21 µM
GI50 (A549 NSCLC): 2.35 µM
TGI (A549 NSCLC): 16.8 µM
GI50 (OVCAR-4 ovarian): 2 µM
TGI (OVCAR-4 ovarian): 18.8 µM
GI50 (EKVX NSCLC): 0.0918 µM
TGI (EKVX NSCLC): 15.9 µM
GI50 (NCI-H23 lung): 0.533 µM
TGI (NCI-H23 lung): 8.49 µM
GI50 (RPMI-8226 leukemia): 2.6 µM
TGI (RPMI-8226 leukemia): 21.9 µM
GI50 (COLO 205 colon): 5.07 µM
TGI (COLO 205 colon): 18.9 µM
GI50 (MALME-3M melanoma): 10.5 µM
TGI (MALME-3M melanoma): 23.2 µM
GI50 (IGROV1 ovarian): 11.4 µM
TGI (IGROV1 ovarian): 39.9 µM
GI50 (A498 renal): 1.93 µM
TGI (A498 renal): 15.5 µM
GI50 (UACC-62 melanoma): 4.9 µM
TGI (UACC-62 melanoma): 27.9 µM
GI50 (SK-MEL-5 melanoma): 11.3 µM
TGI (SK-MEL-5 melanoma): 35.3 µM
GI50 (SF-268 CNS): 8.27 µM
TGI (SF-268 CNS): 29.2 µM
GI50 (SF-539 CNS): 2.67 µM
TGI (SF-539 CNS): 14.9 µM
GI50 (MOLT-4 leukemia): 2.33 µM
TGI (MOLT-4 leukemia): 16.1 µM
GI50 (MDA-MB-435): 6.52 µM
TGI (MDA-MB-435): 25.8 µM
GI50 (HT29 colon): 3.31 µM
TGI (HT29 colon): 17.8 µM
GI50 (TK-10 renal): 5.8 µM
TGI (TK-10 renal): 25.8 µM
GI50 (CCRF-CEM leukemia): 3.28 µM
TGI (CCRF-CEM leukemia): 18.9 µM
GI50 (786-0 renal): 5.54 µM
TGI (786-0 renal): 27 µM
GI50 (HOP-62 NSCLC): 10.3 µM
TGI (HOP-62 NSCLC): 26.3 µM
GI50 (HCC-2998 colon): 3.23 µM
TGI (HCC-2998 colon): 20.4 µM
GI50 (BT-549 breast): 4 µM
TGI (BT-549 breast): 26.3 µM
GI50 (K-562 leukemia): 3.79 µM
TGI (K-562 leukemia): > 100 µM
GI50 (SF-295 CNS): 4.68 µM
TGI (SF-295 CNS): 23.2 µM
GI50 (M14 melanoma): 5.58 µM
TGI (M14 melanoma): 27.2 µM
GI50 (LOX IMVI melanoma): 3.78 µM
TGI (LOX IMVI melanoma): 16.2 µM
GI50 (SNB-19 CNS): 13.7 µM
TGI (SNB-19 CNS): 35.5 µM
GI50 (OVCAR-5 ovarian): 3.53 µM
TGI (OVCAR-5 ovarian): 19.4 µM
GI50 (NCI-H460 lung): 0.393 µM
TGI (NCI-H460 lung): 1.98 µM
GI50 (DU-145 prostate): 3.74 µM
TGI (DU-145 prostate): 15.2 µM
GI50 (OVCAR-8 ovarian): 12.3 µM
TGI (OVCAR-8 ovarian): 32.1 µM
GI50 (SK-MEL-2 melanoma): 18.2 µM
TGI (SK-MEL-2 melanoma): > 100 µM
GI50 (HL-60(TB) leukemia): 3.34 µM
TGI (HL-60(TB) leukemia): 30.4 µM
GI50 (KM12 colon): 2.13 µM
TGI (KM12 colon): 7.6 µM
GI50 (UACC-257 melanoma): 3.96 µM
TGI (UACC-257 melanoma): 21.3 µM
GI50 (HCT-15 colon): 3.46 µM
TGI (HCT-15 colon): 17.6 µM
GI50 (PC-3 prostate): 3.11 µM
TGI (PC-3 prostate): 18 µM
GI50 (OVCAR-3 ovarian): 2.86 µM
TGI (OVCAR-3 ovarian): 17.1 µM
GI50 (SK-OV-3 ovarian): 4.07 µM
TGI (SK-OV-3 ovarian): 29.7 µM
